The nature of data set [1]: Stability of analytes in rat plasma under various storage conditions. It is filed as in vitro ADME. The conditions noted are these: for Stability Post-Preparation: 12 h after sample preparation at 4 °C; for Stability Short-Term / Stability Long-Term / Stability Three Freeze-Thaw: rat plasma; for Stability Short-Term: room temperature 4 h; for Stability Long-Term: storage for 2 weeks; for Stability Three Freeze-Thaw: three freeze–thaw cycles at −20 °C. On the procedure: The stability of six analytes in rat plasma was estimated under different storage conditions. […] Post-preparative stability of analytes also implied that there was no obvious degradation when samples were kept at 4 °C for 12 h. In addition, all compounds remained stable for two weeks at […].
The stability of six compounds in rat plasma including freeze and thaw stability (three freeze–thaw cycles at −20 °C), long-term stability (storage for 2 weeks at −80 °C), room temperature stability (storage for 4 h at ambient temperature), and post-preparation stability […] All stability testing QC samples were determined by using the calibration curve of freshly prepared standard samples.

Data set [2] in a line: Pharmacokinetic study in rats after single oral administration of S. officinalis extract (UHPLC-MS/MS of plasma). It counts as in vivo, Sprague-Dawley rats. The note with it: for Cmax / AUC(0-inf) / AUC(0-t) / Tmax / half-life: rat plasma, single oral dose of S. officinalis extract 0.015 g/kg, n = 12, mean ± SD; for time of first peak of mean plasma concentration-time curve (double-peak phenomenon) / time of second peak of mean plasma concentration-time curve (double-peak phenomenon): rats, after oral administration of S. officinalis extract, Figure 4. On the procedure:
The UHPLC-MS/MS method was successfully used in the pharmacokinetic studies of six analytes after single dose administration of S. officinalis extract in rats. Based on the body surface area calculations of people and the animals and equivalent dose conversion calculations, the dosage of the rats was 0.015 g/kg. The half-time (t1/2), maximum plasma concentration (Cmax), time to reach Cmax (Tmax), and area under concentration–time curve (AUC0→t and AUC0→∞) were calculated via non-compartmental analysis (Table 6). The pharmacokinetic parameters of six components were reckoned by means of non-compartmental analysis using DAS 2.0 (Shanghai, China).
The experimental protocol was permitted by the Animal Ethics Committee of Harbin Medical University and conformed to the principles for the Care and Use of Laboratory Animals. Twelve male Sprague-Dawley rats (Weight 200 ± 20 g) were provided by the Laboratory Animal Centre of Harbin Medical University (Harbin, China). Each rat was fasted for 12 h before giving the drug and had free water supply even during the experiment. The S. officinalis extract was dissolved in water. A single dose of the S. officinalis extract (0.015 g/kg) was administrated to the rats. Blood (0.3 mL) was gained from the retinal venous plexus at 0, 0.083, 0.25, 0.5 1.0, 1.5, 2.0, 3.0, 4.0, 6.0, 8.0, 12.0 and 24.0 h after dosing. The plasma was immediately separated by centrifugation at 12000 rpm for 5 min at […].
Ten microliters of IS (1040.0 ng/mL) solution and 100 μL of methanol were added to 100 μL aliquot of plasma sample and vortexed for 30 s. The mixture was extracted with 3 mL ethyl acetate by being vortex-mixed for 1 min. The supernatant was separated and evaporated to dryness by N2 blowing at 40 °C after centrifuging at 3800 rpm for 5 min. The residue was reconstituted with 100 μL of methanol, and then vortex-mixed for 2 min and filtered by a 0.22 μm nylon 66 organic membrane. This was followed by injection of 5 μL aliquot of the solution into the UHPLC-MS/MS system (Agilent Technologies, Santa Clara, CA, USA).
The maximum concentration (Cmax) and the time to attain it (Tmax) were observed directly from the measured data. The elimination rate constant (Ke) was calculated by linear regression of the terminal points in a semi-log plot of the plasma concentration against time. The elimination half-life (t1/2) was calculated using the formula t1/2 = 0.693/Ke. The area under plasma concentration–time curve (AUC0→t) to the last measurable plasma concentration (Ct) was estimated by using the linear trapezoidal rule. The area under the plasma concentration–time curve to time infinity (AUC0→∞) was calculated as: AUC0→∞ = AUC0→t + Ct/Ke. The pharmacokinetic parameters of six analytes were reckoned by non-compartmental analysis using DAS 2.0 (Mathematical Pharmacology Professional Committee of China, Shanghai, China).

Setting [3] is: male, Sprague-Dawley, rat, plasma, po, 0.015 g/kg, read-out: Cmax.

Each structure is given as a SMILES string. Read-outs that look alike come from different tables or passages of the source.

By Cmax is commonly meant the highest concentration seen after dosing. A word on the AUC(0-inf): it is the area under the concentration-time curve extrapolated to infinity. High values mean more exposure, low ones less exposure. The term AUC(0-t) denotes the area under the concentration-time curve up to a stated or last time point. What is called Tmax is the time at which the peak concentration occurs. The term half-life denotes the time needed for the level to fall by half in the phase considered. As for `C[C@@H]1CC[C@]2(C(=O)O[C@@H]3O[C@H](CO)[C@@H](O)[C@H](O)[C@H]3O)CC[C@]3(C)C(=CC[C@@H]4[C@@]5(C)CC[C@H](O[C@@H]6OC[C@H](O)[C@H](O)[C@H]6O)C(C)(C)[C@@H]5CC[C@]43C)[C@@H]2[C@]1(C)O` [I, ziyuglycoside I], in data set [1] (high QC spiked concentration), the “Stability Post-Preparation” value is given as −9.95 % RE, the “Stability Short-Term” value is given as 2.44 % RE, the “Stability Long-Term” value is on record as 2.03 % RE and the “Stability Three Freeze-Thaw” value was found to be 2.51 % RE. Besides, in data set [1] (low QC spiked concentration), the “Stability Post-Preparation” value is listed as −2.07 % RE, the “Stability Short-Term” value is 4.27 % RE, the “Stability Long-Term” value is recorded as 2.43 % RE and the “Stability Three Freeze-Thaw” value was found to be 6.07 % RE. Besides, in data set [1] (medium QC spiked concentration), the “Stability Post-Preparation” value is 3.53 % RE, the “Stability Short-Term” value came to 6.27 % RE, the “Stability Long-Term” value is reported as −6.57 % RE and the “Stability Three Freeze-Thaw” value is on record as 10.19 % RE. Moreover, the Cmax in data set [2] (setting [3]) turned out to be 745 ± 85.7 ng/mL. Also, in data set [2] (male, Sprague-Dawley), the AUC(0-inf) is 3320 ± 429 ng·h/mL, the AUC(0-t) was 2880 ± 303 ng·h/mL, the Tmax came to 0.92 ± 0.2 h and the half-life is 11.6 ± 3.07 h. In data set [2], the Cmax was 744.7 ± 85.7 ng/mL, the “time of first peak of mean plasma concentration-time curve (double-peak phenomenon)” value (“time of first peak … (double-peak phenomenon)” for short) fell in the range of 0.5 to 1.5 h and the “time of second peak of mean plasma concentration-time curve (double-peak phenomenon)” value (from here on “time of second peak … (double-peak phenomenon)”) is 4 to 8 h.

In the case of `CC1CCC2(C(=O)OC3OC(CO)C(O)C(O)C3O)CCC3(C)C(=CCC4C5(C)CCC(O)C(C)(C)C5CCC43C)C2C1(C)O` [II, 3β,19α-dihydroxyurs-12-en-28-oic-acid 28-β-D-glucopyranosyl ester], in data set [1] (high QC spiked concentration), the “Stability Post-Preparation” value stood at 3.04 % RE, the “Stability Short-Term” value is on record as 2.47 % RE, the “Stability Long-Term” value is 2.24 % RE and the “Stability Three Freeze-Thaw” value was determined as 2.74 % RE. For the same molecule, in data set [1] (low QC spiked concentration), the “Stability Post-Preparation” value is recorded as 5.22 % RE, the “Stability Short-Term” value is recorded as −5.94 % RE, the “Stability Long-Term” value was −3.19 % RE and the “Stability Three Freeze-Thaw” value stood at 2.66 % RE. In data set [1] (medium QC spiked concentration), the “Stability Post-Preparation” value worked out at 4.11 % RE, the “Stability Short-Term” value worked out at 4.60 % RE, the “Stability Long-Term” value is listed as 2.08 % RE and the “Stability Three Freeze-Thaw” value is −2.95 % RE. The Cmax in data set [2] (setting [3]) is 527 ± 64 ng/mL. In data set [2] (male, Sprague-Dawley), the AUC(0-inf) was determined as 2660 ± 601 ng·h/mL, the AUC(0-t) amounted to 2300 ± 417 ng·h/mL, the Tmax came to 0.83 ± 0.26 h and the half-life is 8.99 ± 3.04 h. In data set [2], the Cmax was 526.6 ± 64.0 ng/mL, the “time of first peak … (double-peak phenomenon)” value was 0.5 to 1.5 h and the “time of second peak … (double-peak phenomenon)” value was in the range of 4 to 8 h.

Turning to `CC1=C2C3=CCC4C5(C)CCC(OC6OCC(O)C(O)C6O)C(C)(C)C5CCC4(C)C3(C)CCC2(C(=O)OC2OC(CO)C(O)C(O)C2O)CCC1C` [III, 3β-[(α-L-arabinopyranosyl)oxy]-urs-12,18(19)-dien-28-oic acid β-D-glucopyranosyl ester], in data set [1] (high QC spiked concentration), the “Stability Post-Preparation” value amounted to 1.10 % RE, the “Stability Short-Term” value is reported as −2.42 % RE, the “Stability Long-Term” value was found to be 4.31 % RE and the “Stability Three Freeze-Thaw” value is −3.38 % RE. In data set [1] (low QC spiked concentration), the “Stability Post-Preparation” value is −1.34 % RE, the “Stability Short-Term” value is reported as −5.54 % RE, the “Stability Long-Term” value is on record as 3.75 % RE and the “Stability Three Freeze-Thaw” value is −7.72 % RE. Further, in data set [1] (medium QC spiked concentration), the “Stability Post-Preparation” value is −2.48 % RE, the “Stability Short-Term” value is −7.66 % RE, the “Stability Long-Term” value is on record as −5.18 % RE and the “Stability Three Freeze-Thaw” value is −5.29 % RE. In addition, in data set [2] (setting [3]), the Cmax stood at 318 ± 47.6 ng/mL. In data set [2] (male, Sprague-Dawley), the total exposure AUC(0-inf) was 1230 ± 193 ng·h/mL, the AUC(0-t) was 1140 ± 150 ng·h/mL, the Tmax is 1.33 ± 0.26 h and the half-life was 6.86 ± 2.91 h. In addition, in data set [2], the Cmax was determined as 317.9 ± 47.6 ng/mL, the “time of first peak … (double-peak phenomenon)” value stood at 0.25 h and the “time of second peak … (double-peak phenomenon)” value is on record as below 1.5 h.

With `C[C@@H]1CC[C@]2(C(=O)O[C@@H]3O[C@H](CO)[C@@H](O)[C@H](O)[C@H]3O)CC[C@]3(C)C(=CC[C@@H]4[C@@]5(C)C[C@@H](O)[C@H](O)C(C)(C)[C@@H]5CC[C@]43C)[C@@H]2[C@]1(C)O` [IV, rosamultin], in data set [1] (high QC spiked concentration), the “Stability Post-Preparation” value is on record as 3.95 % RE, the “Stability Short-Term” value is 4.55 % RE, the “Stability Long-Term” value is listed as −6.75 % RE and the “Stability Three Freeze-Thaw” value is 2.07 % RE. Moreover, in data set [1] (low QC spiked concentration), the “Stability Post-Preparation” value stood at 7.45 % RE, the “Stability Short-Term” value was 9.63 % RE, the “Stability Long-Term” value is 4.88 % RE and the “Stability Three Freeze-Thaw” value was 6.80 % RE. In data set [1] (medium QC spiked concentration), the “Stability Post-Preparation” value turned out to be 2.23 % RE, the “Stability Short-Term” value came out at 7.81 % RE, the “Stability Long-Term” value is given as 2.71 % RE and the “Stability Three Freeze-Thaw” value amounted to 3.84 % RE. Besides, the Cmax in data set [2] (setting [3]) amounted to 315 ± 22.5 ng/mL. In data set [2] (male, Sprague-Dawley), the AUC(0-inf) was 1300 ± 193 ng·h/mL, the AUC(0-t) amounted to 1210 ± 120 ng·h/mL, the Tmax was 1.58 ± 0.2 h and the half-life was 7.32 ± 2.74 h. In data set [2], this molecule displayed a Cmax of 314.5 ± 22.5 ng/mL.

Turning to `CC1CCC2(C(=O)O)CCC3(C)C(=CCC4C5(C)C(O)C(O)C(O)C(C)(C)C5CCC43C)C2C1(C)O` (stereo not drawn) [V, 1β-hydroxyeuscaphic acid], in data set [1] (high QC spiked concentration), the “Stability Post-Preparation” value is on record as −3.03 % RE, the “Stability Short-Term” value came to 2.56 % RE, the “Stability Long-Term” value turned out to be 3.06 % RE and the “Stability Three Freeze-Thaw” value was 2.28 % RE. In data set [1] (low QC spiked concentration), the “Stability Post-Preparation” value turned out to be 8.48 % RE, the “Stability Short-Term” value was −4.77 % RE, the “Stability Long-Term” value amounted to 9.86 % RE and the “Stability Three Freeze-Thaw” value is reported as −9.67 % RE. In addition, in data set [1] (medium QC spiked concentration), the “Stability Post-Preparation” value came to 5.23 % RE, the “Stability Short-Term” value is reported as −3.67 % RE, the “Stability Long-Term” value is reported as 6.95 % RE and the “Stability Three Freeze-Thaw” value came out at 3.99 % RE. Also, the Cmax in data set [2] (setting [3]) came to 212 ± 11.8 ng/mL. Moreover, in data set [2] (male, Sprague-Dawley), the AUC(0-inf) is 794 ± 152 ng·h/mL, the AUC(0-t) worked out at 733 ± 94.1 ng·h/mL, the Tmax amounted to 0.58 ± 0.2 h and the half-life was 7.35 ± 3.95 h. In data set [2], this molecule displayed a Cmax of 211.5 ± 11.8 ng/mL.

The record behind these values is PMC6278537, “Simultaneous Determination and Pharmacokinetics Study of Six Triterpenes in Rat Plasma by UHPLC-MS/MS after Oral Administration of Sanguisorba officinalis L. Extract” (Molecules, 2018).
